We go through one compound from US12070464B2, “Methods of treating myeloproliferative disorders” (priority 2019, dated 2024).

Data set [1] has as its system JAK inhibitor treatment naive myelofibrosis patients. Type of data set: in vivo, human. As for the experimental part:
(§1) A Phase 2 study of Compound 1 in subjects with myelofibrosis (MF) was conducted. Three treatment arms were studied:
Arm 3—combination treatment with Compound 1 and Rux in patients (pts) who have not previously been administered a JAK inhibitor, i.e., JAK inhibitor treatment naive. In this arm, key eligibility criteria of included JAKi naive myelofibrosis (MF) patients (pts) with Dynamic International Prognostic Scoring (DIPSS) score int-1 or higher, ECOG performance status ≤2, platelet counts (PLT) ≥100×109/L, peripheral blood blast count <10%, anemia (hemoglobin <10 g/dL), ≥5 cm palpable spleen, ≥2 symptoms measurable (score ≥3) or a total symptom score (c using the MFSAF v4.0. Primary endpoint: spleen volume response (SVR); key secondary endpoints: change in TSS, safety and PK; additional endpoints: changes in proinflammatory cytokine (Ck) levels, BM morphology and mutant allele burden.
(§2) The starting dose of Compound 1 was 125 mg given orally, once daily for 2 weeks on/1 week off in a 21-day dosing cycle. Two separate time points for data analysis occurred for at least Arms 1 and 2 and are discussed below: one at approximately 12 weeks of treatment (first assessment of spleen volume by MRI or CT and every 12 weeks thereafter) and another at approximately 24 weeks of treatment (first assessment of bone marrow biopsy and every 24 weeks thereafter). Patients were added to the study following the first time point.
Demographics and results are as follows: Baseline median age: 71 years (52-76), gender: 8 male (72.7%), ECOG ≤1: 10 (90.9%) patients, primary MF: 8 (72.7%) patients, DIPSS score: int-1/int-2/high: 2/7/2 patients, median platelet: 368×109/L (112-951), 9 (81.8%) patients with hemoglobin <10 g/dL, median spleen volume: 1379 cc (580-2807), median TSS: 11.8 (4.1-17), driver mutations: 11 (100%) with ≥1 JAK2/MPL/CALR mutations, HMR (high molecular risk) mutations: 6 […] patients, and ≥3 mutations: 4 (36%) patients. […] See FIG. 9, where * is data post cut off-date.

The subject of data set [2] is patients with refractory or intolerant advanced myelofibrosis. Nature of the data set: Phase 2 study, Arms 1 and 2 together (monotherapy or add-on to ruxolitinib). Type of data set: in vivo, human. Here is the method:
as §1
(§3) Arm 1=monotherapy with Compound 1 in patients (pts) who are no longer on Rux and are with refractory, intolerant, or ineligible. In this arm patients were further stratified based on transfusion dependence status [transfusion dependent (TD), defined as an average of >2 units per month over 12 wks, or non-TD cohorts]. Primary endpoint: spleen volume response (SVR) for non-TD cohorts or TD to transfusion independence (TI, no transfusion for consecutive 12 wks) conversion for TD cohorts; secondary endpoints: change in total symptom score (TSS) per MFSAF v4.0, patient global impression of change (PGIC), safety and PK; additional endpoints: changes in proinflammatory Ck levels, BM morphology and mutant allele burden.
as §3, with “2=combination add-on treatment of” for “1=monotherapy with”, “already being administered Rux.” for “no longer on Rux and are with refractory, intolerant, or ineligible.”, “cohorts]. The starting dose of Compound 1 was 125 mg daily on days 1-14 of a 21-day cycle in both arms.” for “cohorts].”
as §2
Demographics and results are as follows: At baseline, median age: 69 years (41-88), gender: 28 (58%) male, ECOG <1: 45 (94%) patients, primary MF: 33 (69%) patients, DIPSS score high: 10 (21%) patients, median platelet: 199 x 1091 (77-895), 34 (71%) patients with Hgb <10 g/dL, median spleen volume: 2183 cc (123-3909), median TSS: 17.6 (1.4-56), 46 (96%) patients had ≥1 JAK2/MPL/CALR mutations, and 34 (71%) patients had HMR (high molecular risk) mutations. 33 (69%) patients on treatment for ≥12 wks, 4 on treatment for >18 months.

Setting [3] is: expanded population n=15, at least 12 weeks, FIG. 16.
Where [4] appears, read: Time Point 2, Arms 1 and 2, FIG. 14.

Turning to `Cc1noc2c1-c1ccccc1C(c1ccc(Cl)cc1)=N[C@H]2CC(N)=O` [Compound 1, 2-((4S)-6-(4-chlorophenyl)-1-methyl-4H-benzo[c]isoxazolo[4,5-e]azepin-4-yl)acetamide], in data set [1] (4 patients on treatment for ≥12 weeks, with ruxolitinib), the “patients achieving ≥50% improvement in TSS” value was 100%. In data set [1] (4 patients on treatment for ≥12 weeks, with ruxolitinib, FIG. 9), the “patients achieving ≥35% spleen volume reduction” value was found to be 100%. Further, the “patients who had a TSS of ≥10” value in data set [1] (expanded population n=15, FIG. 17) was “about 71%”. In addition, the “patients with overall improvement in PGIC” value in data set [1] (expanded population n=15, FIG. 18) was “About 80%”. Further, in data set [1] (setting [3]), the “SVR, average” value was “about −49.7%” and the “patients achieving ≥35% SVR” value is given as “About 80%”. In addition, in data set [1] (human, in vivo), the “DLTs and grade ≥3 thrombocytopenia” value is reported as “no DLTs or grade ≥3 thrombocytopenia”; the “most common TEAE observed in ≥2 patients” value was “anemia (1 grade 3), fatigue (all ≤grade 2), and non-cumulative reversible thrombocytopenia (all ≤grade 2)”. Also, in data set [2] (Time Point 1), the “most common (≥20%) treatment-emergent adverse events of any Gr” value is “diarrhea, nausea, cough and upper respiratory tract infection”; the “≥3 Gr TEAE anemia” value amounted to 8.3%. The “patients with improvement in BM fibrosis and/or reticulin by ≥1 Gr” value in data set [2] (Time Point 1, 7 of 12 evaluable patients, as early as 6-months) came out at 58%. Besides, the “patients with ≥50% TSS improvement” value in data set [2] (Time Point 1, 11 patients) worked out at 39%. Also, the “patients reporting much or very much improved PGIC scores” value in data set [2] (Time Point 1, 21 patients) stood at 64%. Moreover, in data set [2] (Time Point 1, 26 of 28 patients, FIG. 8 panel B), the “patients with TSS improvement” value worked out at 93%. The “patients with PGIC improvement score” value in data set [2] (Time Point 1, 28 of 33 patients) is recorded as 85%. The “patients with spleen volume reduction” value in data set [2] (Time Point 1, 29 of 31 patients, FIG. 8 panel A) is 94%. Besides, the “≥3 Gr TEAE thrombocytopenia” value in data set [2] (Time Point 1, asymptomatic, non-cumulative and generally reversible) is listed as 8.3%. Further, in data set [2] (setting [4]), the “subjects with bone marrow fibrosis improvement” value is “about 38%” and the “subjects with bone marrow fibrosis improvement as early as 6-months” value is recorded as “about 32%”. Further, the tolerability result in data set [2] (alone or add-on to ruxolitinib) was “generally well-tolerated”.
